One series deals with rat hepatic microsomes. In words: Metabolism of N-(2-methoxyphenyl)hydroxylamine by hepatic microsomes of control (uninduced) rats, HPLC of metabolites. The format is in vitro ADME. Conditions: 1.0 mM substrate. On the procedure: (§1) The study was conducted in accordance with the Regulations for the Care and Use of Laboratory Animals (311/1997, Ministry of Agriculture, Czech Republic), which complies with Declaration of Helsinki. Microsomes from livers of ten untreated rats and three rabbits were prepared by the procedure described previously (Stiborová et al., [1988]). Microsomes from the livers of ten male Wistar rats pretreated with β-NF (Stiborová et al., [1988]) were isolated as described (Stiborová et al., [1988]; [1995]), those pretreated with phenobarbital (PB) as reported by Hodek et al. ([1988]), and those pretreated with ethanol were isolated using a procedure described by Yang et al. ([1985]). Protein concentrations in the microsomal fractions were assessed using the bicinchoninic acid protein assay with bovine serum albumin as a standard (Wiechelman et al., [1988]). The concentration of CYP was estimated according to Omura and Sato ([1964]), by measuring the absorption of the complex of reduced CYP with carbon monoxide. […] The activity of NADPH:CYP reductase in rat hepatic microsomes was measured according to Sottocasa et al. ([1967]) using cytochrome c as substrate (i.e., as NADPH:cytochrome c reductase).

In series [1] the test system is rat hepatic microsomes enriched with CYP2E1. In words: Metabolism of N-(2-methoxyphenyl)hydroxylamine by hepatic microsomes of rats pre-treated with ethanol. It is filed as in vitro ADME. The method, then: as §1
Series [2] is described as follows: Incubation of N-(2-methoxyphenyl)hydroxylamine without hepatic microsomal enzymes or without NADPH (spontaneous conversion). The format is physicochemical. The following applies: pH 7.4, without hepatic microsomal enzymes or without NADPH. On the procedure: At pH 7.4, used for microsomal incubations, their spontaneous formation was negligible.
The next series concerns CYP. In words: CYP concentration in hepatic microsomes of induced rats (CO complex of reduced CYP). The following applies: hepatic microsomes of rats induced with the agent. The method, then: as §1
A further series relates to NADPH:CYP reductase. In words: NADPH:CYP reductase activity in hepatic microsomes of induced rats (cytochrome c as substrate). The following applies: hepatic microsomes of rats induced with the agent. The method, then:
as §1

The next series deals with Sacchromyces cerevisiae. The following applies: ref Brennan and Schiestl ([1997]); cited from earlier work.

Structures are written as SMILES.

Consider `COc1ccccc1NO` [N-(2-methoxyphenyl)hydroxylamine], for which the “formation of metabolite M1” value in the series with rat hepatic microsomes was “negligible”. In series [1], the “change of levels of o-anisidine versus control microsomes” value was “decreased”. Besides, the “spontaneous formation of metabolite M1 and o-aminophenol” value in series [2] is “negligible”.
Take `O=c1cc(-c2ccccc2)oc2ccc3ccccc3c12` [β-NF, β-naphthoflavone]: the “CYP content of hepatic microsomes” value in the series on CYP stood at 1.3 nmol CYP/mg protein. Besides, the “NADPH:CYP reductase activity in hepatic microsomes” value (“NADPH:CYP reductase activity” for short) in the series on NADPH:CYP reductase came to 0.199 µmol/min/mg protein.
`Nc1ccccc1O` [o-aminophenol]: the “result in the deletion recombination assay” value in the series on Sacchromyces cerevisiae is given as “positive”.
Turning to `CCC1(c2ccccc2)C(=O)NC(=O)NC1=O` [PB, phenobarbital], in the series on CYP, the “CYP content of hepatic microsomes” value amounted to 2.7 nmol CYP/mg protein. The “NADPH:CYP reductase activity” value in the series on NADPH:CYP reductase is 0.325 µmol/min/mg protein.
`CCO` [ethanol]: in the series on CYP, the “CYP content of hepatic microsomes” value worked out at 1.8 nmol CYP/mg protein. In the series on NADPH:CYP reductase, the “NADPH:CYP reductase activity” value came to 0.201 µmol/min/mg protein.

The record behind these values is paper PMC2994023 (Interdisciplinary Toxicology, 2010).
